Data as given in PubChem BioAssay (NCI).
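Each compound was tested at five concentrations against cells in 96-well plates for 48 hours. Definition used: TGI = concentration required for complete inhibition of growth.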

Columns and labels:
Test in all cases: NCI anticancer screen, dose series, 48 h
RPMI-8226 leukemia = system: RPMI-8226 leukemia
SF-268 CNS = system: SF-268 CNS
SK-MEL-2 melanoma = system: SK-MEL-2 melanoma
SN12C renal = system: SN12C renal
A549 NSCLC = system: A549 NSCLC
NCI-H23 lung = system: NCI-H23 lung
NCI/ADR-RES ovarian = system: NCI/ADR-RES ovarian
MOLT-4 leukemia = system: MOLT-4 leukemia
HCT-116 colon = system: HCT-116 colon
EKVX NSCLC = system: EKVX NSCLC
IGROV1 ovarian = system: IGROV1 ovarian
BT-549 breast = system: BT-549 breast
ACHN renal = system: ACHN renal
SK-OV-3 ovarian = system: SK-OV-3 ovarian
OVCAR-4 ovarian = system: OVCAR-4 ovarian
MDA-N = system: MDA-N
COLO 205 colon = system: COLO 205 colon
TK-10 renal = system: TK-10 renal
HOP-62 NSCLC = system: HOP-62 NSCLC
KM12 colon = system: KM12 colon
SW-620 colon = system: SW-620 colon
NCI-H460 lung = system: NCI-H460 lung
MCF7 breast = system: MCF7 breast
NCI-H522 lung = system: NCI-H522 lung
CAKI-1 renal = system: CAKI-1 renal
HL-60(TB) leukemia = system: HL-60(TB) leukemia
UACC-257 melanoma = system: UACC-257 melanoma
HOP-92 NSCLC = system: HOP-92 NSCLC
MALME-3M melanoma = system: MALME-3M melanoma
MDA-MB-435 = system: MDA-MB-435
MDA-MB-231 breast = system: MDA-MB-231 breast
HT29 colon = system: HT29 colon
DU-145 prostate = system: DU-145 prostate
HS 578T breast = system: HS 578T breast
OVCAR-5 ovarian = system: OVCAR-5 ovarian
K-562 leukemia = system: K-562 leukemia
786-0 renal = system: 786-0 renal
SK-MEL-5 melanoma = system: SK-MEL-5 melanoma
M14 melanoma = system: M14 melanoma
SK-MEL-28 melanoma = system: SK-MEL-28 melanoma
UO-31 renal = system: UO-31 renal
SNB-19 CNS = system: SNB-19 CNS
HCT-15 colon = system: HCT-15 colon
SF-295 CNS = system: SF-295 CNS
LOX IMVI melanoma = system: LOX IMVI melanoma
OVCAR-3 ovarian = system: OVCAR-3 ovarian
OVCAR-8 ovarian = system: OVCAR-8 ovarian
CCRF-CEM leukemia = system: CCRF-CEM leukemia
U251 CNS = system: U251 CNS
SF-539 CNS = system: SF-539 CNS
PC-3 prostate = system: PC-3 prostate
UACC-62 melanoma = system: UACC-62 melanoma
SR leukemia = system: SR leukemia
A498 renal = system: A498 renal
T-47D breast = system: T-47D breast
NCI-H226 lung = system: NCI-H226 lung
SNB-75 CNS = system: SNB-75 CNS

For `CCOC(=O)c1c(C)n(Cc2ccccc2)c2c1cc(O)c1[nH]c3c(c12)CCCC3`, the TGI (RPMI-8226 leukemia) was 4.97 µM, the TGI (SF-268 CNS) was 5.16 µM and the TGI (SK-MEL-2 melanoma) was 5.25 µM. The TGI (SN12C renal) was 17.8 µM, the TGI (A549 NSCLC) was 19.6 µM and the TGI (NCI-H23 lung) was 29.9 µM. For the same compound, the TGI (NCI/ADR-RES ovarian) was 18.5 µM, the TGI (MOLT-4 leukemia) was 12.6 µM and the TGI (HCT-116 colon) was 27.8 µM. It also gave a TGI (EKVX NSCLC) of 8.12 µM, a TGI (IGROV1 ovarian) of 15.6 µM and a TGI (BT-549 breast) of 24.6 µM. It also gave a TGI (ACHN renal) of 23.9 µM, a TGI (SK-OV-3 ovarian) of 24.5 µM and a TGI (OVCAR-4 ovarian) of 4.08 µM. For the same compound, the TGI (MDA-N) was 28.2 µM, the TGI (COLO 205 colon) was 18.9 µM and the TGI (TK-10 renal) was 23.6 µM. For the same compound, the TGI (HOP-62 NSCLC) was 24.6 µM, the TGI (KM12 colon) was 13.2 µM and the TGI (SW-620 colon) was 13.3 µM. The TGI (NCI-H460 lung) was 7.32 µM, the TGI (MCF7 breast) was 13.3 µM and the TGI (NCI-H522 lung) was 2.58 µM. It also gave a TGI (CAKI-1 renal) of 24.5 µM, a TGI (HL-60(TB) leukemia) of 5.52 µM and a TGI (UACC-257 melanoma) of 52.4 µM. For the same compound, the TGI (HOP-92 NSCLC) was 2.11 µM, the TGI (MALME-3M melanoma) was 15.6 µM and the TGI (MDA-MB-435) was 24.4 µM. It also gave a TGI (MDA-MB-231 breast) of 19 µM, a TGI (HT29 colon) of 26.4 µM and a TGI (DU-145 prostate) of 26.1 µM. It also gave a TGI (HS 578T breast) of 7.97 µM, a TGI (OVCAR-5 ovarian) of 20.1 µM and a TGI (K-562 leukemia) of 10.9 µM. For the same compound, the TGI (786-0 renal) was 30.2 µM, the TGI (SK-MEL-5 melanoma) was 15 µM and the TGI (M14 melanoma) was 20.9 µM. For the same compound, the TGI (SK-MEL-28 melanoma) was 18.7 µM, the TGI (UO-31 renal) was 6.43 µM and the TGI (SNB-19 CNS) was 16.5 µM. For the same compound, the TGI (HCT-15 colon) was 13.9 µM, the TGI (SF-295 CNS) was 11.5 µM and the TGI (LOX IMVI melanoma) was 16.8 µM. The TGI (OVCAR-3 ovarian) was 6.2 µM, the TGI (OVCAR-8 ovarian) was 20.6 µM and the TGI (CCRF-CEM leukemia) was 7.4 µM. It also gave a TGI (U251 CNS) of 4.1 µM, a TGI (SF-539 CNS) of 5.54 µM and a TGI (PC-3 prostate) of 9.92 µM. For the same compound, the TGI (UACC-62 melanoma) was 4.32 µM.
For `C=CC1OC(CCCOC(=O)C(C)(C)C)O[C@@H]1CC` (stereo partly drawn), the TGI (RPMI-8226 leukemia) was over 100 µM, the TGI (SF-268 CNS) was over 100 µM and the TGI (SK-MEL-2 melanoma) was over 100 µM. The TGI (SN12C renal) was over 100 µM, the TGI (A549 NSCLC) was over 100 µM and the TGI (NCI-H23 lung) was over 100 µM. For the same compound, the TGI (NCI/ADR-RES ovarian) was over 100 µM, the TGI (MOLT-4 leukemia) was over 100 µM and the TGI (SR leukemia) was over 100 µM. For the same compound, the TGI (EKVX NSCLC) was over 100 µM, the TGI (IGROV1 ovarian) was over 100 µM and the TGI (ACHN renal) was over 100 µM. It also gave a TGI (SK-OV-3 ovarian) of over 100 µM, a TGI (OVCAR-4 ovarian) of over 100 µM and a TGI (MDA-N) of over 100 µM. The TGI (COLO 205 colon) was over 100 µM, the TGI (TK-10 renal) was over 100 µM and the TGI (HOP-62 NSCLC) was over 100 µM. It also gave a TGI (A498 renal) of over 100 µM, a TGI (KM12 colon) of over 100 µM and a TGI (SW-620 colon) of over 100 µM. It also gave a TGI (NCI-H460 lung) of over 100 µM, a TGI (MCF7 breast) of over 100 µM and a TGI (NCI-H522 lung) of over 100 µM. It also gave a TGI (CAKI-1 renal) of over 100 µM, a TGI (HL-60(TB) leukemia) of over 100 µM and a TGI (UACC-257 melanoma) of over 100 µM. It also gave a TGI (HOP-92 NSCLC) of over 100 µM, a TGI (MDA-MB-435) of over 100 µM and a TGI (T-47D breast) of over 100 µM. The TGI (MDA-MB-231 breast) was over 100 µM, the TGI (HT29 colon) was over 100 µM and the TGI (DU-145 prostate) was over 100 µM. For the same compound, the TGI (HS 578T breast) was over 100 µM, the TGI (OVCAR-5 ovarian) was over 100 µM and the TGI (SK-MEL-5 melanoma) was over 100 µM. It also gave a TGI (M14 melanoma) of over 100 µM, a TGI (SK-MEL-28 melanoma) of over 100 µM and a TGI (UO-31 renal) of over 100 µM. It also gave a TGI (SNB-19 CNS) of over 100 µM, a TGI (NCI-H226 lung) of over 100 µM and a TGI (HCT-15 colon) of over 100 µM. The TGI (SF-295 CNS) was over 100 µM, the TGI (OVCAR-3 ovarian) was over 100 µM and the TGI (OVCAR-8 ovarian) was over 100 µM. The TGI (CCRF-CEM leukemia) was over 100 µM, the TGI (U251 CNS) was over 100 µM and the TGI (SF-539 CNS) was over 100 µM. The TGI (PC-3 prostate) was over 100 µM, the TGI (UACC-62 melanoma) was over 100 µM and the TGI (SNB-75 CNS) was over 100 µM.
